Test results as given in patent US20250179045A1, “LPAR1 ANTAGONISTS AND USES THEREOF” (Contineum Therapeutics, Inc., priority 2021, published 2025).

Target: human LPA1 (Homo sapiens, UniProt Q92633)
Test: In vitro functional assay of lysophosphatidic acid receptor 1 activity (calcium flux)
Type: cell-based
Conditions: B103 cells stably expressing human LPA1; Fluo-4 NW calcium flux after lysophosphatidic acid (18:1) at EC80; compounds 100 pM to 10 μM; read-out: LPA1 IC50
Summary of the method: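 B103 cells stably expressing human LPA1 plated onto compound for 24 h at 37 °C, loaded with Fluo-4 NW dye, re-exposed to compound (30 min 37 °C plus 30 min room temp).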

human LPA1, sequence (Q92633 whole entry): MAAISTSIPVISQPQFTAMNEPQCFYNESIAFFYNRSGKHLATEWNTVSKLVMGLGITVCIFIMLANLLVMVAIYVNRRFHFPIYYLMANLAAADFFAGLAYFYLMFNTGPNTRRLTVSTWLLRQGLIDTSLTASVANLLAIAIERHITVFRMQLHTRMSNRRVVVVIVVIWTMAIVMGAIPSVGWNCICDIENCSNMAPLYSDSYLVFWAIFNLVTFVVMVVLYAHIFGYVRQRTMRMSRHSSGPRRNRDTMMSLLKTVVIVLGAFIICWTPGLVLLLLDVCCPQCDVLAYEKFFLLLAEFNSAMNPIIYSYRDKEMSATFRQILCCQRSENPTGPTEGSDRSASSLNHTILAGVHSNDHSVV

SMILES	IC50 [nM]
Cc1ccc(NC(=O)C2(c3ccccc3C(C)C)CC(O)C2)c(OC(F)F)n1 (centres unmarked) [Example 58, N-(2-(difluoromethoxy)-6-methylpyridin-3-yl)-3-hydroxy-1-(2-isopropylphenyl)cyclobutane-1-carboxamide]	100 to 1000
Cc1ccc(NC(=O)C2(c3ccccc3C(C)C)CC(CO)C2)c(OC(F)F)n1 (centres unmarked) [Example 59, N-(2-(difluoromethoxy)-6-methylpyridin-3-yl)-3-(hydroxymethyl)-1-(2-isopropylphenyl)cyclobutane-1-carboxamide]	10 to 100
COc1ccc(NC(=O)C2(c3ccccc3C(C)C)CC(CO)C2)c(OC)n1 (centres unmarked) [Example 60, N-(2,6-dimethoxypyridin-3-yl)-3-(hydroxymethyl)-1-(2-isopropylphenyl)cyclobutane-1-carboxamide]	10 to 100
Cc1ccc(NC(=O)C2(c3ccccc3C(C)C)CC(CS(C)(=O)=O)C2)c(OC(F)F)n1 (centres unmarked) [Example 64, N-(2-(difluoromethoxy)-6-methylpyridin-3-yl)-1-(2-isopropylphenyl)-3-((methylsulfonyl)methyl)cyclobutane-1-carboxamide]	100 to 1000
CNS(=O)(=O)C1CC(C(=O)Nc2ccc(C)nc2OC(F)F)(c2ccccc2C(C)C)C1 (centres unmarked) [Example 70, N-(2-(difluoromethoxy)-6-methylpyridin-3-yl)-1-(2-isopropylphenyl)-3-(N-methylsulfamoyl)cyclobutane-1-carboxamide]	10 to 100
Cc1ccc(NC(=O)C2(c3ccccc3C(C)C)CC(S(C)(=O)=O)C2)c(OC(F)F)n1 (centres unmarked) [Example 71, N-(2-(difluoromethoxy)-6-methylpyridin-3-yl)-1-(2-isopropylphenyl)-3-(methylsulfonyl)cyclobutane-1-carboxamide]	100 to 1000
Cc1ccc(NC(=O)C2(c3ccccc3C(C)C)CC(Cn3ccnn3)C2)c(OC(F)F)n1 (centres unmarked) [Example 72, 3-((1H-1,2,3-triazol-1-yl)methyl)-N-(2-(difluoromethoxy)-6-methylpyridin-3-yl)-1-(2-isopropylphenyl)cyclobutane-1-carboxamide]	10 to 100
Cc1ccc(NC(=O)C2(c3ccccc3C(C)C)CCC2)c(OC(F)F)n1 [Example 73, N-(2-(difluoromethoxy)-6-methylpyridin-3-yl)-1-(2-isopropylphenyl)cyclobutane-1-carboxamide]	> 1000
CC(=O)N1CC2(C1)CC(C(=O)Nc1ccc(C)nc1OC(F)F)(c1ccccc1C(C)C)C2 [Example 74, 2-acetyl-N-(2-(difluoromethoxy)-6-methylpyridin-3-yl)-6-(2-isopropylphenyl)-2-azaspiro[3.3]heptane-6-carboxamide]	> 1000
COc1ccc(NC(=O)C2(c3ccccc3C(C)C)CCC3(CC2)OCCO3)c(OC(F)F)n1 [Example 79, N-(2-(difluoromethoxy)-6-methoxypyridin-3-yl)-8-(2-isopropylphenyl)-1,4-dioxaspiro[4.5]decane-8-carboxamide]	100 to 1000
COc1ccc(NC(=O)C2(c3ccccc3C(C)C)CCC(=O)CC2)c(OC(F)F)n1 [Example 80, N-(2-(difluoromethoxy)-6-methoxypyridin-3-yl)-1-(2-isopropylphenyl)-4-oxocyclohexane-1-carboxamide]	10 to 100
C#CC1(O)CCC(C(=O)Nc2ccc(OC)nc2OC(F)F)(c2ccccc2C(C)C)CC1 (centres unmarked) [Example 82, N-(2-(difluoromethoxy)-6-methoxypyridin-3-yl)-4-ethynyl-4-hydroxy-1-(2-isopropylphenyl)cyclohexane-1-carboxamide]	< 10
COc1ccc(NC(=O)C2(c3ccccc3C(C)C)CCC(N=[N+]=[N-])CC2)c(OC(F)F)n1 (centres unmarked) [Example 84, 4-azido-N-(2-(difluoromethoxy)-6-methoxypyridin-3-yl)-1-(2-isopropylphenyl)cyclohexane-1I-carboxamide]	10 to 100
CNS(=O)(=O)C1CCC(C(=O)Nc2ccc(OC)nc2OC(F)F)(c2ccccc2C(C)C)CC1 (centres unmarked) [Example 99, N-(2-(difluoromethoxy)-6-methoxypyridin-3-yl)-1-(2-isopropylphenyl)-4-(N-methylsulfamoyl)cyclohexane-1-carboxamide]	100 to 1000
COc1ccc(NC(=O)C2(c3ccccc3C(C)C)CCC(S(C)(=O)=O)CC2)c(OC(F)F)n1 (centres unmarked) [Example 100, N-(2-(difluoromethoxy)-6-methoxypyridin-3-yl)-1-(2-isopropylphenyl)-4-(methylsulfonyl)cyclohexane-1-carboxamide]	100 to 1000
COc1cc(Br)ccc1NC(=O)C1(c2ccccc2C(C)C)CNC(=O)C1 (centres unmarked) [Example 104, N-(4-bromo-2-methoxyphenyl)-3-(2-isopropylphenyl)-5-oxopyrrolidine-3-carboxamide]	10 to 100
CC(C)c1ccccc1C1(C(=O)Nc2ccc(Br)cc2OC(F)F)CNC(=O)C1 (centres unmarked) [Example 105, N-(4-bromo-2-(difluoromethoxy)phenyl)-3-(2-isopropylphenyl)-5-oxopyrrolidine-3-carboxamide]	10 to 100
COc1nc(C)ccc1NC(=O)C1(c2ccccc2C(C)C)CNC(=O)C1 (centres unmarked) [Example 106, 3-(2-isopropylphenyl)-N-(2-methoxy-6-methylpyridin-3-yl)-5-oxopyrrolidine-3-carboxamide]	100 to 1000
CC(C)c1ccccc1C1(C(=O)Nc2ccc(OC(F)F)nc2Cl)CNC(=O)C1 (centres unmarked) [Example 107, N-(2-chloro-6-(difluoromethoxy)pyridin-3-yl)-3-(2-isopropylphenyl)-5-oxopyrrolidine-3-carboxamide]	> 1000
CC(C)c1ccccc1C1(C(=O)Nc2ccc(Cl)nc2OC(F)F)CNC(=O)C1 (centres unmarked) [Example 108, N-(6-chloro-2-(difluoromethoxy)pyridin-3-yl)-3-(2-isopropylphenyl)-5-oxopyrrolidine-3-carboxamide]	10 to 100
Cc1ccc(NC(=O)C2(c3ccccc3C(C)C)CNC(=O)C2)c(OC(F)F)c1 (centres unmarked) [Example 109, N-(2-(difluoromethoxy)-4-methylphenyl)-3-(2-isopropylphenyl)-5-oxopyrrolidine-3-carboxamide]	10 to 100
Cc1ccc(NC(=O)C2(c3ccccc3C(C)C)CC(=O)N(C)C2)c(OC(F)F)c1 (centres unmarked) [Example 110, N-(2-(difluoromethoxy)-4-methylphenyl)-3-(2-isopropylphenyl)-1-methyl-5-oxopyrrolidine-3-carboxamide]	10 to 100
COc1ccc(NC(=O)C2(c3ccccc3C(C)C)CC(Cc3nnn[nH]3)C2)c(OC(F)F)n1 (centres unmarked) [Example 113, 3-((1H-tetrazol-5-yl)methyl)-N-(2-(difluoromethoxy)-6-methoxypyridin-3-yl)-1-(2-isopropylphenyl)cyclobutane-1-carboxamide]	< 10

Results, then the compound that gave them:

IC50 [nM]	SMILES
> 1000	Cc1ccc(NC(=O)C2(c3ccccc3C(C)C)CC(F)(F)C2)c(OC(F)F)n1 [Example 61, N-(2-(difluoromethoxy)-6-methylpyridin-3-yl)-3,3-difluoro-1-(2-isopropylphenyl)cyclobutane-1-carboxamide]
100 to 1000	Cc1ccc(NC(=O)C2(c3ccccc3C(C)C)CC(F)C2)c(OC(F)F)n1 (centres unmarked) [Example 62, N-(2-(difluoromethoxy)-6-methylpyridin-3-yl)-3-fluoro-1-(2-isopropylphenyl)cyclobutane-1-carboxamide]
10 to 100	Cc1ccc(NC(=O)C2(c3ccccc3C(C)C)CC(C(=O)O)C2)c(OC(F)F)n1 (centres unmarked) [Example 65, 3-((2-(difluoromethoxy)-6-methylpyridin-3-yl)carbamoyl)-3-(2-isopropylphenyl)cyclobutane-1-carboxylic acid]
100 to 1000	Cc1ccc(NC(=O)C2(c3ccccc3C(C)C)CC(C(=O)N(C)C)C2)c(OC(F)F)n1 (centres unmarked) [Example 66, N^1-(2-(difluoromethoxy)-6-methylpyridin-3-yl)-1-(2-isopropylphenyl)-N^3,N^3-dimethylcyclobutane-1,3-dicarboxamide]
100 to 1000	Cc1ccc(NC(=O)C2(c3ccccc3C(C)C)CC(CC(=O)N(C)C)C2)c(OC(F)F)n1 (centres unmarked) [Example 67, N-(2-(difluoromethoxy)-6-methylpyridin-3-yl)-3-(2-(dimethylamino)-2-oxoethyl)-1-(2-isopropylphenyl)cyclobutane-1-carboxamide]
10 to 100	CC(C)c1ccccc1C1(C(=O)Nc2ccc(Br)cc2OC(F)F)CC(=O)N(C)C1 (centres unmarked) [Example 87, N-(4-bromo-2-(difluoromethoxy)phenyl)-3-(2-isopropylphenyl)-1-methyl-5-oxopyrrolidine-3-carboxamide]
100 to 1000	CC(C)c1ccccc1C1(C(=O)Nc2ccc(F)cc2OC(F)F)CC(=O)N(C)C1 (centres unmarked) [Example 88, N-(2-(difluoromethoxy)-4-fluorophenyl)-3-(2-isopropylphenyl)-1-methyl-5-oxopyrrolidine-3-carboxamide]
100 to 1000	COc1ccc(NC(=O)C2(c3ccccc3C(C)C)CCC(S(N)(=O)=O)CC2)c(OC(F)F)n1 (centres unmarked) [Example 97, N-(2-(difluoromethoxy)-6-methoxypyridin-3-yl)-1-(2-isopropylphenyl)-4-sulfamoylcyclohexane-1-carboxamide]
10 to 100	COc1cc(C)ccc1NC(=O)C1(c2ccccc2C(C)C)CNC(=O)C1 (centres unmarked) [Example 101, 3-(2-isopropylphenyl)-N-(2-methoxy-4-methylphenyl)-5-oxopyrrolidine-3-carboxamide]
100 to 1000	COc1ccc(NC(=O)C2(c3ccccc3C(C)C)CNC(=O)C2)c(OC)n1 (centres unmarked) [Example 103, N-(2,6-dimethoxypyridin-3-yl)-3-(2-isopropylphenyl)-5-oxopyrrolidine-3-carboxamide]
10 to 100	COc1ccc(NC(=O)C2(c3ccccc3C(C)C)CC(CC#N)C2)c(OC(F)F)n1 (centres unmarked) [Example 111, 3-(cyanomethyl)-N-(2-(difluoromethoxy)-6-methoxypyridin-3-yl)-1-(2-isopropylphenyl)cyclobutane-1-carboxamide]
100 to 1000	COc1cc(CF)ccc1NC(=O)C1(c2ccccc2C(C)C)CNC(=O)C1 (centres unmarked) [Example 115, N-(4-(fluoromethyl)-2-methoxyphenyl)-3-(2-isopropylphenyl)-5-oxopyrrolidine-3-carboxamide]
